“And” between values parts separate entries of the source, which are not always exact repeats. Equal values may be shown once. Where a name gives a salt, the structure may show the parent alone.

Assay [1] deals with T1, Alpha-1D adrenergic receptor (Mus musculus, UniProt P97714).
T1 sequence (P97714 whole entry): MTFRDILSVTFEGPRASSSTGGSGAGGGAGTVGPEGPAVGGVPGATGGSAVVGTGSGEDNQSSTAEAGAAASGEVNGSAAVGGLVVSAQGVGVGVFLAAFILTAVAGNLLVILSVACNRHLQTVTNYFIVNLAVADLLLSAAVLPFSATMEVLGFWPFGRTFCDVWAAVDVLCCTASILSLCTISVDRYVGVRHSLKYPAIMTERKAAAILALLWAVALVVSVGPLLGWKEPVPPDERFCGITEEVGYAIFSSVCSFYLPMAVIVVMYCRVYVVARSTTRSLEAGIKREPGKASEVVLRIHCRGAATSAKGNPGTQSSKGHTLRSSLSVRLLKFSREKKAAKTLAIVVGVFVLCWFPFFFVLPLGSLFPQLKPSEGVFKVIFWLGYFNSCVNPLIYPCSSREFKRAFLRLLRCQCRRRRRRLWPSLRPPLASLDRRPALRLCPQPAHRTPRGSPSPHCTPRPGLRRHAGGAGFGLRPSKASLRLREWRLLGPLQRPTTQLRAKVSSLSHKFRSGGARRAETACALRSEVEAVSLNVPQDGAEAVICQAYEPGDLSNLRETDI

In assay [2] the target is T2, Alpha-1A adrenergic receptor (Oryctolagus cuniculus, UniProt O02824).
T2 sequence (O02824 whole entry): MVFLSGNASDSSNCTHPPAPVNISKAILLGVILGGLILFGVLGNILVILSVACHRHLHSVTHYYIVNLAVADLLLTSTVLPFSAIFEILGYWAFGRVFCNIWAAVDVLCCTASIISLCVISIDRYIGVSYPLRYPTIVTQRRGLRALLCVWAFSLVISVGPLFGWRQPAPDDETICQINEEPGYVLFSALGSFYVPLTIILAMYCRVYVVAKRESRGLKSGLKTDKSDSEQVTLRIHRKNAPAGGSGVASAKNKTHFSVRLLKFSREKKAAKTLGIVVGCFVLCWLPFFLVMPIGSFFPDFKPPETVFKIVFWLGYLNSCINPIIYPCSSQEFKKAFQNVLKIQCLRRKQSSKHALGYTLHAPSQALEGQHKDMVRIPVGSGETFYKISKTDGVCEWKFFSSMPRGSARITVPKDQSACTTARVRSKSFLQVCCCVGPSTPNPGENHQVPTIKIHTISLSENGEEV

Assay [3] concerns the target T3, Alpha-1A adrenergic receptor (Canis lupus familiaris, UniProt O77621).
T3 sequence (O77621 whole entry): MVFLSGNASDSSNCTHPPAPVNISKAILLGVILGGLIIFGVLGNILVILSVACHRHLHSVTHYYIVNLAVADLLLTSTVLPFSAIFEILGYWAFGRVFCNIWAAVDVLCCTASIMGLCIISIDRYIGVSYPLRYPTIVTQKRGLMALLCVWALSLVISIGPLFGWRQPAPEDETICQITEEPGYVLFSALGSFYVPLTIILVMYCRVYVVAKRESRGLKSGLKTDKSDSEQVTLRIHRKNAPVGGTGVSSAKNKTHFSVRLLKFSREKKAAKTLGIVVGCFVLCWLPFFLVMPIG

In assay [4] the target is T4, Alpha-2B adrenergic receptor (Canis lupus familiaris, UniProt Q2MDQ0).
T4 sequence (Q2MDQ0 whole entry): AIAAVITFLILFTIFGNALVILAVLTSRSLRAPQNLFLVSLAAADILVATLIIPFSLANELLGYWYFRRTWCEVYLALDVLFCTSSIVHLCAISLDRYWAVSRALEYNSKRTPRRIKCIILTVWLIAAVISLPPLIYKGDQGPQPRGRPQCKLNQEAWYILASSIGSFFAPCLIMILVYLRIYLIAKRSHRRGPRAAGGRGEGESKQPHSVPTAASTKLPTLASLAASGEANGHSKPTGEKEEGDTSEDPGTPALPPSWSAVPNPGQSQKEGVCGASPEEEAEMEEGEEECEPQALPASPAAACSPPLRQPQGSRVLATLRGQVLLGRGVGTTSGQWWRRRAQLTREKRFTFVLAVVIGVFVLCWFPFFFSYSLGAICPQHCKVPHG

Assay [5] concerns the target T5, Alpha-2A adrenergic receptor (Cavia porcellus, UniProt Q60474).
T5 sequence (Q60474 whole entry): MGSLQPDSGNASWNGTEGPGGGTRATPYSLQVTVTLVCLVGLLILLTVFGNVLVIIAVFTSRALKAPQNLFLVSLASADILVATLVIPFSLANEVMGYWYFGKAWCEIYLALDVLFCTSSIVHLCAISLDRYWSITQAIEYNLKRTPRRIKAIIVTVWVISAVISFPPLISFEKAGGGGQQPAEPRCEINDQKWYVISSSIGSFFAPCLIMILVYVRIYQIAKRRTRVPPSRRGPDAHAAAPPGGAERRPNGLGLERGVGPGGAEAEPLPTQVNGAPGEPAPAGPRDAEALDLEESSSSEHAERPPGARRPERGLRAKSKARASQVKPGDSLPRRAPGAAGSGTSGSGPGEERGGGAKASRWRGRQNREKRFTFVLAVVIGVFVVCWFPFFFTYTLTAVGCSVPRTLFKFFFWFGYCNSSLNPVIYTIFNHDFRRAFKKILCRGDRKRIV

Assay [6] addresses T6, Alpha-2B adrenergic receptor (Oryctolagus cuniculus, UniProt O77830).
T6 sequence (O77830 whole entry): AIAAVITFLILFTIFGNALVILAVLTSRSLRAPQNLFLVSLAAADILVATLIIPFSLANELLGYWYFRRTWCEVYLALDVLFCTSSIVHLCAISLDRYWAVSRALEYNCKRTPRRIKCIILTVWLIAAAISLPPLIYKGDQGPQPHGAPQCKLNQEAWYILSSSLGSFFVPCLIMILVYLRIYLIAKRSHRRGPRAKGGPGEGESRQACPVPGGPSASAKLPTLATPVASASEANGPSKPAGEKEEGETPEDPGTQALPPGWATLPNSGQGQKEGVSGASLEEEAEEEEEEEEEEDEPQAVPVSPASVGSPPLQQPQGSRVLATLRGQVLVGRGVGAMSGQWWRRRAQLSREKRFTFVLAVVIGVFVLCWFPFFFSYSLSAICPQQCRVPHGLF

On to `c1ccc2c(c1)OCC(C1=NCCN1)O2` (stereo not given), for which the Ki in assay [1] came out at 12 nM; in assay [2] it was 2300 nM.
Take `CN1CCc2cccc(Cl)c2CC1` [MLS002172470]: the Ki in assay [3] amounted to 1100 nM; in assay [2], 900 nM; in assay [4] it was 42 nM; in assay [5], 13 nM.
On to `COC(=O)[C@H]1[C@H]2C[C@H]3c4[nH]c5ccccc5c4CCN3C[C@H]2CC[C@@H]1O` [RAUWOLSCINE HYDROCHLORIDE], for which the Ki in assay [3] is 234 nM; in assay [2], 1800 nM and 4000 nM and 1300 nM.
`COC(=O)[C@@H]1[C@H]2C[C@H]3c4[nH]c5ccccc5c4CCN3C[C@@H]2CC[C@@H]1O` [yohimbic acid methyl ester]: the Ki in assay [2] was 1100 nM and 275 nM; in assay [6], 21 nM.

For the origin of these results see BindingDB's records for PubMed 2867217 (Smith Kline & French Laboratories, 1986).
